Measurements from ChEMBL document CHEMBL4680194, “Synthesis and biological evaluation of 1,2,4-triazole derivatives as potential neuroprotectant against ischemic brain injury” (Eur J Med Chem, 2020).
Active and inactive are the calls of the source. The calls are words filed in the database; no cut-off is given here.

What was measured:
[1] = test system: PC-12; assay: Cytoprotective activity against H2O2-induced cell death in rat PC-12 cells assessed as increase in cell viability at 10 uM incubated for 1 hr followed by H2O2 stimulation and measured after 5 hrs by MTT assay; assay type: functional; conditions: time 6.0 hrs
[2] = test system: PC-12; assay: Cytoprotective activity against H2O2-induced cell death in rat PC-12 cells assessed as increase in cell viability incubated for 1 hr followed by H2O2 stimulation and measured after 5 hrs by LDH assay; assay type: functional, cell-based; conditions: time 6.0 hrs
[3] = test system: PC-12; assay: Cytoprotective activity against SNP-induced cell death in rat PC-12 cells assessed as increase in cell viability at 10 uM incubated for 1 hr followed by SNP stimulation and measured after 24 hrs by MTT assay; assay type: functional; conditions: time 25.0 hrs
[4] = test system: PC-12; assay: Cytoprotective activity against SNP-induced cell death in rat PC-12 cells assessed as increase in cell viability incubated for 1 hr followed by SNP stimulation and measured after 24 hrs by LDH assay; assay type: functional, cell-based; conditions: time 25.0 hrs
[5] = Metal chelating activity of the compound assessed as Fe2+-compound complex formation incubated for 10 mins in presence of ferrozine by UV-visible spectrophotometry

Row | SMILES | Activity [1] | Activity [2] | Activity [3] | Activity [4] | IC50 ([5]; read-out: IC50) [µM] | IC50 [5]
1 | NS(=O)(=O)c1ccc(-n2nc(-c3ccc(Cl)cc3O)nc2-c2ccccc2O)cc1 | Active | Dose-dependent effect | Active | Dose-dependent effect | 36 | –
2 | NS(=O)(=O)c1ccc(-n2nc(-c3ccc([N+](=O)[O-])cc3O)nc2-c2ccccc2O)cc1 | Active | Dose-dependent effect | Active | Dose-dependent effect | 27.5 | –
3 | NS(=O)(=O)c1ccc(-n2nc(-c3ccccc3O)nc2-c2ccccc2O)cc1 | Active | Dose-dependent effect | Active | Dose-dependent effect | 42.9 | –
4 | NS(=O)(=O)c1ccc(-n2nc(-c3ccc(F)cc3)nc2-c2ccccc2O)cc1 | inactive | – | inactive | – | – | Not Active
5 | NS(=O)(=O)c1ccc(-n2nc(-c3ccc(F)cc3O)nc2-c2ccccc2O)cc1 | Active | Dose-dependent effect | Active | Dose-dependent effect | 46.2 | –
6 | NS(=O)(=O)c1ccc(-n2nc(-c3ccc(C(F)(F)F)cc3)nc2-c2ccccc2O)cc1 | inactive | – | inactive | – | – | Not Active
7 | NS(=O)(=O)c1ccc(-n2nc(-c3ccccc3)nc2-c2ccccc2O)cc1 | inactive | – | inactive | – | – | Not Active
8 | Cc1ccc(-c2nc(-c3ccc(C)cc3O)n(-c3ccc(S(N)(=O)=O)cc3)n2)c(O)c1 | inactive | – | inactive | – | – | –
9 | NS(=O)(=O)c1ccc(-n2nc(-c3ccc(C(F)(F)F)cc3O)nc2-c2ccccc2O)cc1 | Active | Dose-dependent effect | Active | Dose-dependent effect | 22.6 | –
10 | NS(=O)(=O)c1ccc(-n2nc(-c3ccc(C(F)(F)F)cc3O)nc2-c2ccc(C(F)(F)F)cc2O)cc1 | inactive | – | inactive | – | – | –
11 | NS(=O)(=O)c1ccc(-n2nc(-c3ccc([N+](=O)[O-])cc3)nc2-c2ccccc2O)cc1 | inactive | – | inactive | – | – | Not Active
12 | NS(=O)(=O)c1ccc(-n2nc(-c3ccc(F)cc3O)nc2-c2ccc(F)cc2O)cc1 | inactive | – | inactive | – | – | –
13 | Cc1ccc(-c2nc(-c3ccccc3O)n(-c3ccc(S(N)(=O)=O)cc3)n2)c(O)c1 | Active | Dose-dependent effect | Active | Dose-dependent effect | 35.1 | –
